Test results: patent US20250186433A1, “ACSS2 INHIBITORS AND METHODS OF USE THEREOF” (EpiVario, Inc., priority 2017, published 2025)

molecular target: ACSS2 (Homo sapiens, UniProt Q9NR19); assay: biochemical
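Note: Pyrophosphatase-coupled ACSS2 enzyme assay, 10 nM protein incubated 90 min at 37 °C with ATP, CoA and acetate, released phosphate read by Biomol Green absorbance at 620 nm.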
Procedure: The assay is based on a coupling reaction with Pyrophosphatase: ACSS2 is converting ATP+CoA+Acetate=>AMP+pyrophosphate+Acetyl-CoA (Ac-CoA). Pyrophosphatase converts pyrophosphate, a product of the ACSS2 reaction, to phosphate which can be detected by measuring the absorbance at 620 nm after incubation with the Biomol green reagent (Enzo life Science, BML-AK111).
At the end of the reaction, Biomol Green was added for 30 minutes at RT and the activity was measured by reading the absorbance at 620 nm.

Chain of ACSS2 (Q9NR19 whole entry): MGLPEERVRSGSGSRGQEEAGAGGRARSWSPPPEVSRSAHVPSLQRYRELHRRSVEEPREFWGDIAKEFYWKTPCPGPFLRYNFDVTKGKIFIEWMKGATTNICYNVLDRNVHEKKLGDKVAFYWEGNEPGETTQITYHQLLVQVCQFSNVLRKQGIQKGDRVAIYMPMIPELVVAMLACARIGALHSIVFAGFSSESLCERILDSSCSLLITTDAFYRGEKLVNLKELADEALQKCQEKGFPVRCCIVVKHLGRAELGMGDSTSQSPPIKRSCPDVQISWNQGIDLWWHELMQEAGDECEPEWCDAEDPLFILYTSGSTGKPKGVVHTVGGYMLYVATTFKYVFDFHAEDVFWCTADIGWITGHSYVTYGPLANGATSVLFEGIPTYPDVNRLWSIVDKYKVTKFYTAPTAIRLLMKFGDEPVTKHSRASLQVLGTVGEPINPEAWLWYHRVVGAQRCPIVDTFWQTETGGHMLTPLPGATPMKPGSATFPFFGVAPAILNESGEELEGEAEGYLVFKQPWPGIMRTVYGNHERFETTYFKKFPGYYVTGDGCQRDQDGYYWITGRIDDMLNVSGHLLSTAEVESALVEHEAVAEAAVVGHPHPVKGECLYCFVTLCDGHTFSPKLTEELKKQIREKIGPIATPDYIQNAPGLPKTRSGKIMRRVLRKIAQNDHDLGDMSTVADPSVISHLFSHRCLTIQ

| Compound | IC50 [nM] |
| --- | --- |
| CCC(F)(F)c1cc(NC(=O)C2C(=O)N(c3ccc(OC(F)F)cc3)N=C2C)ccn1 (centres unmarked) [compound 506, 1-(4-(difluoromethoxy)phenyl)-N-(2-(1,1-difluoropropyl)pyridin-4-yl)-3-methyl-5-oxo-4,5-dihydro-1H-pyrazole-4-carboxamide] | 6 to 100 |
| CCC(F)(F)c1cccc(NC(=O)C2C(=O)N(c3ccc(S(C)(=O)=O)cc3)N=C2C)c1 (centres unmarked) [compound 508, N-(3-(1,1-difluoropropyl)phenyl)-3-methyl-1-(4-(methylsulfonyl)phenyl)-5-oxo-4,5-dihydro-1H-pyrazole-4-carboxamide] | 0.01 to 6 |
| CC1=NN(c2ccc(OC(F)F)cc2)C(=O)C1C(=O)Nc1cccc(C(F)=C(C)C)c1 (centres unmarked) [compound 496, 1-[4-(difluoromethoxy)phenyl]-N-[3-(1-fluoro-2-methyl-prop-1-enyl)phenyl]-3-methyl-5-oxo-4H-pyrazole-4-carboxamide] | 6 to 100 |
| CCC(F)(F)c1cccc(NC(=O)C2C(=O)N(c3ccc(OC)nn3)N=C2C)c1 (centres unmarked) [compound 510, N-(3-(1,1-difluoropropyl)phenyl)-1-(6-methoxypyridazin-3-yl)-3-methyl-5-oxo-4,5-dihydro-1H-pyrazole-4-carboxamide] | 0.01 to 6 |
| CCC(F)(F)c1cccc(NC(=O)C2C(=O)N(c3ccc(OC)c(-c4ncccc4C)c3)N=C2C)c1 (centres unmarked) [compound 535, N-(3-(1,1-difluoropropyl)phenyl)-1-(4-methoxy-3-(3-methylpyridin-2-yl)phenyl)-3-methyl-5-oxo-4,5-dihydro-1H-pyrazole-4-carboxamide] | 0.01 to 6 |
| CCC(F)(F)c1cccc(NC(=O)C2C(=O)N(c3ccc(OC)c(-c4ccccc4)n3)N=C2C)c1 (centres unmarked) [compound 498, N-(3-(1,1-difluoropropyl)phenyl)-1-(5-methoxy-6-phenylpyridin-2-yl)-3-methyl-5-oxo-4,5-dihydro-1H-pyrazole-4-carboxamide] | 0.01 to 6 |
| CCC(F)(F)c1cccc(NC(=O)C2C(=O)N(c3ccc4ccnnc4c3)N=C2C)c1 (centres unmarked) [compound 524, 1-(cinnolin-7-yl)-N-(3-(1,1-difluoropropyl)phenyl)-3-methyl-5-oxo-4,5-dihydro-1H-pyrazole-4-carboxamide] | 6 to 100 |
| CON(C)C(=O)C(F)(F)c1cccc(NC(=O)C2C(=O)N(c3ccc(OC(F)F)c(-c4ccccn4)c3)N=C2C)c1 (centres unmarked) [compound 471, N-(3-(1,1-difluoro-2-(methoxy(methyl)amino)-2-oxoethyl)phenyl)-1-(4-(difluoromethoxy)-3-(pyridin-2-yl)phenyl)-3-methyl-5-oxo-4,5-dihydro-1H-pyrazole-4-carboxamide] | 100 to 1000 |
| CCC(F)(F)c1cccc(NC(=O)C2C(=O)N(c3ccc4cnn(S(=O)(=O)c5ccc(C)cc5)c4c3)N=C2C)c1 (centres unmarked) [compound 487, N-[3-(1,1-difluoropropyl)phenyl]-3-methyl-5-oxo-1-[1-(p-tolylsulfonyl)indazol-6-yl]-4H-pyrazole-4-carboxamide] | 6 to 100 |
| COc1cccc(Cc2cc(-c3cccnc3)cc(N3N=C(C)C(C(=O)Nc4cccc(C(C)(F)F)c4)C3=O)c2)c1 (centres unmarked) [compound 461] | 6 to 100 |
| CCC(F)(F)c1cccc(NC(=O)C2C(=O)N(c3ccc(OC)cc3C(C)=O)N=C2C)c1 (centres unmarked) [compound 516, 1-(2-acetyl-4-methoxyphenyl)-N-(3-(1,1-difluoropropyl)phenyl)-3-methyl-5-oxo-4,5-dihydro-1H-pyrazole-4-carboxamide] | 6 to 100 |
| CCC(F)(F)c1cccc(NC(=O)C2C(=O)N(c3ccc(OC)cc3F)N=C2C)c1 (centres unmarked) [compound 505, N-(3-(1,1-difluoropropyl)phenyl)-1-(2-fluoro-4-methoxyphenyl)-3-methyl-5-oxo-4,5-dihydro-1H-pyrazole-4-carboxamide] | 0.01 to 6 |
| CCC(F)(F)c1cccc(NC(=O)C2C(=O)N(c3ccc4ccn(C(=O)c5ccc(C)cc5)c4c3)N=C2C)c1 (centres unmarked) [compound 480, N-[3-(1,1-difluoropropyl)phenyl]-3-methyl-1-[1-(4-methylbenzoyl)indol-6-yl]-5-oxo-4H-pyrazole-4-carboxamide] | 6 to 100 |
| CCC(F)(F)c1cccc(NC(=O)C2C(=O)N(c3ccc4ccn(C(=O)c5cccc(O)c5)c4c3)N=C2C)c1 (centres unmarked) [compound 493, N-(3-(1,1-difluoropropyl)phenyl)-1-(1-(3-hydroxybenzoyl)-1H-indol-6-yl)-3-methyl-5-oxo-4,5-dihydro-1H-pyrazole-4-carboxamide] | 0.01 to 6 |
| CCC(F)(F)c1cccc(NC(=O)C2C(=O)N(c3cnc(Cl)cn3)N=C2C)c1 (centres unmarked) [compound 489, 1-(5-chloropyrazin-2-yl)-N-(3-(1,1-difluoropropyl)phenyl)-3-methyl-5-oxo-4,5-dihydro-1H-pyrazole-4-carboxamide] | 0.01 to 6 |
| CCc1cccc(NC(=O)C2C(=O)N(c3ccc([N+](=O)[O-])cc3)N=C2C)c1 (centres unmarked) [compound 157] | 1000 to 100000 |
| CCC(F)(F)c1cccc(NC(=O)C2C(=O)N(c3ccc(C#N)cc3)N=C2C)c1 (centres unmarked) [compound 501, 1-(4-cyanophenyl)-N-(3-(1,1-difluoropropyl)phenyl)-3-methyl-5-oxo-4,5-dihydro-1H-pyrazole-4-carboxamide] | 0.01 to 6 |
| CCC(F)(F)c1cccc(NC(=O)C2C(=O)N(c3ccc(OC)c(-c4cc(C)nc(C)c4)c3)N=C2C)c1 (centres unmarked) [compound 531, N-(3-(1,1-difluoropropyl)phenyl)-1-(3-(2,6-dimethylpyridin-4-yl)-4-methoxyphenyl)-3-methyl-5-oxo-4,5-dihydro-1H-pyrazole-4-carboxamide] | 0.01 to 6 |

| Compound | IC50 [nM] |
| --- | --- |
| CCC(F)(F)c1cccc(NC(=O)C2C(=O)N(c3cccc4occc34)N=C2C)c1 (centres unmarked) [compound 492, 1-(benzofuran-4-yl)-N-(3-(1,1-difluoropropyl)phenyl)-3-methyl-5-oxo-4,5-dihydro-1H-pyrazole-4-carboxamide] | 0.01 to 6 |
| CCCC(=O)n1ccc2ccc(N3N=C(C)C(C(=O)Nc4cccc(C(F)(F)CC)c4)C3=O)cc21 (centres unmarked) [compound 478, 1-(1-butanoylindol-6-yl)-N-[3-(1,1-difluoropropyl)phenyl]-3-methyl-5-oxo-4H-pyrazole-4-carboxamide] | 0.01 to 6 |
| CCC(F)(F)c1cccc(NC(=O)C2C(=O)N(c3ccc4c(C)cn(C)c4c3)N=C2C)c1 (centres unmarked) [compound 497, N-(3-(1,1-difluoropropyl)phenyl)-1-(1,3-dimethyl-1H-indol-6-yl)-3-methyl-5-oxo-4,5-dihydro-1H-pyrazole-4-carboxamide] | 0.01 to 6 |
| CC1=NN(c2cc(-c3cccnc3)cc(-c3ccc4cc[nH]c4c3)c2)C(=O)C1C(=O)Nc1cccc(C(C)(F)F)c1 (centres unmarked) [compound 473] | 6 to 100 |
| COc1ccccc1Cc1cc(-c2cccnc2)cc(N2N=C(C)C(C(=O)Nc3cccc(C(C)(F)F)c3)C2=O)c1 (centres unmarked) [compound 466] | 6 to 100 |
| CCC(F)(F)c1cncc(NC(=O)C2C(=O)N(c3ccc(OC(F)F)cc3)N=C2C)c1 (centres unmarked) [compound 511, 1-(4-(difluoromethoxy)phenyl)-N-(5-(1,1-difluoropropyl)pyridin-3-yl)-3-methyl-5-oxo-4,5-dihydro-1H-pyrazole-4-carboxamide] | 0.01 to 6 |
| CC1=NN(c2cc(-c3cccnc3)cc(-c3cccc4[nH]ccc34)c2)C(=O)C1C(=O)Nc1cccc(C(C)(F)F)c1 (centres unmarked) [compound 465] | 6 to 100 |
| CCC(F)(F)c1cccc(NC(=O)C2C(=O)N(c3ccc(OC)c(-c4ccncc4C)c3)N=C2C)c1 (centres unmarked) [compound 532, N-(3-(1,1-difluoropropyl)phenyl)-1-(4-methoxy-3-(3-methylpyridin-4-yl)phenyl)-3-methyl-5-oxo-4,5-dihydro-1H-pyrazole-4-carboxamide] | 0.01 to 6 |
| CCC(F)(F)c1cccc(NC(=O)C2C(=O)N(c3ccc4ccoc4c3)N=C2C)c1 (centres unmarked) [compound 491, 1-(benzofuran-6-yl)-N-(3-(1,1-difluoropropyl)phenyl)-3-methyl-5-oxo-4,5-dihydro-1H-pyrazole-4-carboxamide] | 0.01 to 6 |
| CCC(F)(F)c1cccc(NC(=O)C2C(=O)N(c3ccc(Cl)nn3)N=C2C)c1 (centres unmarked) [compound 490, 1-(6-chloropyridazin-3-yl)-N-(3-(1,1-difluoropropyl)phenyl)-3-methyl-5-oxo-4,5-dihydro-1H-pyrazole-4-carboxamide] | 6 to 100 |
| CCC(F)(F)c1cccc(NC(=O)C2C(=O)N(c3ccc4ccn(S(=O)(=O)c5ccccc5)c4c3)N=C2C)c1 (centres unmarked) [compound 476, N-(3-(1,1-difluoropropyl)phenyl)-3-methyl-5-oxo-1-(1-(phenylsulfonyl)-1H-indol-6-yl)-4,5-dihydro-1H-pyrazole-4-carboxamide] | 0.01 to 6 |
| CCC(F)(F)c1cccc(NC(=O)C2C(=O)N(c3ccc4ccsc4c3)N=C2C)c1 (centres unmarked) [compound 485, 1-(benzo[b]thiophen-6-yl)-N-(3-(1,1-difluoropropyl)phenyl)-3-methyl-5-oxo-4,5-dihydro-1H-pyrazole-4-carboxamide] | 0.01 to 6 |
| CCC(F)(F)c1cccc(NC(=O)C2C(=O)N(c3ccc4ccn(C(=O)c5ccc(O)cc5)c4c3)N=C2C)c1 (centres unmarked) [compound 482, N-(3-(1,1-difluoropropyl)phenyl)-1-(1-(4-hydroxybenzoyl)-1H-indol-6-yl)-3-methyl-5-oxo-4,5-dihydro-1H-pyrazole-4-carboxamide] | 0.01 to 6 |
| CC1=NN(c2cc(Br)cc(I)c2)C(=O)C1C(=O)Nc1cccc(C(C)(F)F)c1 (centres unmarked) [compound 468] | 0.01 to 6 |
| CCC(F)(F)c1cccc(NC(=O)C2C(=O)N(c3ccc4nccnc4c3)N=C2C)c1 (centres unmarked) [compound 488, N-(3-(1,1-difluoropropyl)phenyl)-3-methyl-5-oxo-1-(quinoxalin-6-yl)-4,5-dihydro-1H-pyrazole-4-carboxamide] | 0.01 to 6 |
| CCC(F)(F)c1cccc(NC(=O)C2C(=O)N(c3ccc(OC)c(-c4cc(C)ccn4)c3)N=C2C)c1 (centres unmarked) [compound 537, N-(3-(1,1-difluoropropyl)phenyl)-1-(4-methoxy-3-(4-methylpyridin-2-yl)phenyl)-3-methyl-5-oxo-4,5-dihydro-1H-pyrazole-4-carboxamide] | 0.01 to 6 |
| CCC(F)(F)c1cccc(NC(=O)C2C(=O)N(c3ccc(OC)c(-c4ccc(C)cn4)c3)N=C2C)c1 (centres unmarked) [compound 534, N-(3-(1,1-difluoropropyl)phenyl)-1-(4-methoxy-3-(5-methylpyridin-2-yl)phenyl)-3-methyl-5-oxo-4,5-dihydro-1 H-pyrazole-4-carboxamide] | 0.01 to 6 |
